Results: US9376454B2, “Beta-lactamase inhibitors” (priority 2013, dated 2016)

Columns and labels:
Assay type in all cases: biochemical
SHV-5 β-lactamase = target: T1, SHV-5 β-lactamase (Klebsiella pneumoniae, UniProt P0A3M1); test: β-Lactamase inhibition enzyme assay, SHV-5
T1 construct: made in house; host or cells: E. coli BL21(DE3)
Experimental: (§1) For SHV-5, Kpc-2, p99AmpC and OXA-1 β-lactamases, E. coli BL21(DE3) bacterial cells carrying expression plasmids (expressed as native untagged proteins) for the individual β-lactamases were grown in 1 L of Superbroth (Teknova Inc. Hollister, Calif.) supplemented with 100 μg/ml kanamycin selection and 1×5052 (0.5% glycerol, 0.05% glucose and 0.2% α-lactose) at 35° C. for 18-20 hours. Cells were harvested by centrifugation (4,000×g, 4° C., 20 min), resuspended in 50 ml of 10 mM HEPES pH 7.5 ( 1/20 of the initial volume). The cells were lysed by sonication (5 pulses of 45 seconds) at 45 W on ice. The lysates were clarified by centrifugation at 10,000×g for 40 minutes at 4° C. Samples were diluted 5-fold in 50 mM sodium acetate pH 5.0, stored overnight at 4° C., after which they were centrifuged at 10,000×g for 30 minutes to clarify, and filtered through 0.45 μm filters. The samples were loaded onto a 5 ml Capto S sepharose cation exchange column (GE Healthcare) pre-equilibrated with 50 mM sodium acetate pH 5.0. The column was washed with 5 column volumes of 50 mM sodium acetate pH 5.0 to wash out unbound protein and a linear gradient of NaCl (0 to 500 mM) was used to elute the protein (over 16 CV) from the column. Fractions were assayed for β-lactamase activity using Centa (Calbiochem, Gibbstown, N.J.) or Nitrocefin (EMD Millipore chemicals, Darmstadt, Germany) as a reporter β-lactamase substrate for activity in the isolated fractions. Active fractions were pooled, concentrated and further purified by gel filtration chromatography on a Superdex 75 prep grade gel filtration column (GE Healthcare, Piscataway, N.J.) pre-equilibrated in 50 mM Hepes pH 7.5, 150 mM NaCl. Active fractions were pooled concentrated, quantitated by BCA protein determination (Thermo Scientific, Rockford, Ill.), dialyzed into PBS and frozen at −80° C. in 20% glycerol until use.
(§2) An equal volume of diluted enzyme stock was added, and the plates were incubated at 37° C. for 15 min. Nitrocefin was used as substrate for p99 AmpC, VIM-2 and OXA-1 and dispensed into each well at a final concentration of 100 μM. Absorbance at 486 nm was immediately monitored for 10 min using a Biotek Powerwave XS2 microplate spectrophotometer using the GEN5 softweare package (Biotek Instruments, Winooski Vt.). In an analogous fashion, imipenem was used as substrate for Kpc-2 and Cefotaxime was used for SHV-5, while changes in absorbance upon hydrolysis of the β-lactam ring were monitored at 300 nm and 260 nm respectively in UV-transparent 96-well microtiter assay plates. Maximum rates of hydrolysis were compared to those in control wells (without inhibitors), and percentages of enzyme inhibition were calculated for each concentration of inhibitor. The concentration of inhibitor needed to reduce the initial rate of hydrolysis of substrate by 50% (IC50) was calculated as the residual activity of β-lactamase at 486 nm using GraFit version 7 kinetics software package (Erithacus Software, Surrey, UK).

KPC-2 β-lactamase = target: T2, KPC-2 β-lactamase (Klebsiella pneumoniae, UniProt Q9F663); test: β-Lactamase inhibition enzyme assay, KPC-2; conditions: imipenem as substrate, 300 nm; 15 min at 37° C. with enzyme, PBS pH 7.4; read-out: Class A KPC-2 IC50
T2 construct: made in house; host or cells: E. coli BL21(DE3)
T2 sequence (Q9F663 25-293, looked up): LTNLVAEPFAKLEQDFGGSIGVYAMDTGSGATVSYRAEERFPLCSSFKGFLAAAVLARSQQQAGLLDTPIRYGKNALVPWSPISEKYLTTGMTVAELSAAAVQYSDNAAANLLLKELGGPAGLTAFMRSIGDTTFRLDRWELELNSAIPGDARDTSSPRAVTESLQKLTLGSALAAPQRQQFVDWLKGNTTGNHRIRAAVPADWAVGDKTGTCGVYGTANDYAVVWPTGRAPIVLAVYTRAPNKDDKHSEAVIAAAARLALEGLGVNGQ
Experimental: as §1, §2

OXA-1 β-lactamase = target: T3, OXA-1 β-lactamase (Escherichia coli, UniProt P13661); test: β-Lactamase inhibition enzyme assay, OXA-1; conditions: Nitrocefin 100 μM as substrate, 486 nm; 15 min at 37° C. with enzyme, PBS pH 7.4; read-out: Class D OXA-1 IC50
T3 construct: made in house; host or cells: E. coli BL21(DE3)
T3 sequence (P13661 26-276): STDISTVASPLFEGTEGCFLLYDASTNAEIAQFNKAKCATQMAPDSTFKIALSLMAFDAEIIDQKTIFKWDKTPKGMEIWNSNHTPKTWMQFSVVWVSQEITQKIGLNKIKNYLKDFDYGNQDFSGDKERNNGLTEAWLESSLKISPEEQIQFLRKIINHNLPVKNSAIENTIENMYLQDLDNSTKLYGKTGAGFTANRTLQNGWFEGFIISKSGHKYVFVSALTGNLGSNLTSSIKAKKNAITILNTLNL
Experimental: as §1, §2

[1] = target: T4, VIM-2 metallo β-lactamase (Pseudomonas aeruginosa, UniProt Q9K2N0); test: β-Lactamase inhibition enzyme assay, VIM-2; conditions: Nitrocefin 100 μM as substrate, 486 nm; 15 min at 37° C. with enzyme, PBS pH 7.4; read-out: Class B VIM-2 IC50
T4 construct: made in house; host or cells: E. coli BL21(DE3)
Experimental: as §1
For Vim-2 metallo β-lactamase, the procedure was identical with the following exceptions, first the protein was not pH adjusted to pH 5 with 50 mM sodium acetate, second, the chromatography step was changed to a 5 ml Q sepharose anion exchange column pre-equilibrated with 50 mM Hepes pH 7.5, and elution of the protein was achieved by a linear gradient of NaCl (0-600 mM). Finally, the VIM-2 purification required a second run (3rd step) on the Q sepharose anion exchange column to achieve acceptable purity (>90%).
as §2

p99 AmpC β-lactamase = target: T5, p99 AmpC β-lactamase (Enterobacter cloacae, UniProt P05364); test: β-Lactamase inhibition enzyme assay, p99 AmpC
T5 construct: made in house; host or cells: E. coli BL21(DE3)
T5 sequence (P05364 21-381): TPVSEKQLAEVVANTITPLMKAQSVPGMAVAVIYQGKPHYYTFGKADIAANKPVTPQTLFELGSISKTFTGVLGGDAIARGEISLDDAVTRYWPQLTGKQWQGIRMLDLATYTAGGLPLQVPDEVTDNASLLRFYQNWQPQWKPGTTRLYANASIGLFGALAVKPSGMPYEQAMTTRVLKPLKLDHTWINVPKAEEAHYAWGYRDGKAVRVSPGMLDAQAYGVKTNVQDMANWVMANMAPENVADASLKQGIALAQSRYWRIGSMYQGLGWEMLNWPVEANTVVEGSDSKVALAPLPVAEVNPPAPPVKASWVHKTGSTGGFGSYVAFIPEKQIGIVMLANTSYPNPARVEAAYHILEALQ
Experimental: as §1, §2

T1 sequence (P0A3M1 22-286): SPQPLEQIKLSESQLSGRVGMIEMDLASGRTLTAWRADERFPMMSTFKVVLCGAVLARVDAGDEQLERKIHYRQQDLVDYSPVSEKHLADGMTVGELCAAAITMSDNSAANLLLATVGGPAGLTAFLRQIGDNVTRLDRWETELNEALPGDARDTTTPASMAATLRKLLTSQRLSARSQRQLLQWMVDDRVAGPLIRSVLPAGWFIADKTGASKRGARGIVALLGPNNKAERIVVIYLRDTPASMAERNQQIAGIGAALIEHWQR

NCc1ccc(CC(=O)N[C@H]2Cc3cccc(C(=O)O)c3OB2O)cc1CN [Example 20, (R)-3-(2-(3,4-bis(aminomethyl)phenyl)acetamido)-2-hydroxy-3,4-dihydro-2H-benzo[e][1,2]oxaborinine-8-carboxylic acid]
IC50 (SHV-5 β-lactamase): < 100 nM | IC50 (KPC-2 β-lactamase): < 100 nM | IC50 (OXA-1 β-lactamase): < 100 nM | IC50 [1]: < 100 nM | IC50 (p99 AmpC β-lactamase): < 100 nM

CN(C)Cc1ccc(C(=O)N[C@H]2Cc3cccc(C(=O)O)c3OB2O)cc1NC(=O)[C@@H](N)CN [Example 21, (R)-3-(3-((S)-2,3-diaminopropanamido)-4-((dimethylamino)methyl)benzamido)-2-hydroxy-3,4-dihydro-2H-benzo[e][1,2]oxaborinine-8-carboxylic acid]
IC50 (SHV-5 β-lactamase): 100 to 1000 nM | IC50 (KPC-2 β-lactamase): < 100 nM | IC50 (OXA-1 β-lactamase): < 100 nM | IC50 [1]: < 100 nM | IC50 (p99 AmpC β-lactamase): < 100 nM

Cc1ccc(C(=O)N[C@H]2Cc3cccc(C(=O)O)c3OB2O)cc1NC(=O)[C@@H](N)CN [Example 22, (R)-3-(3-((S)-2,3-diaminopropanamido)-4-methylbenzamido)-2-hydroxy-3,4-dihydro-2H-benzo[e][1,2]oxaborinine-8-carboxylic acid]
IC50 (SHV-5 β-lactamase): 1000 to 10000 nM | IC50 (KPC-2 β-lactamase): 100 to 1000 nM | IC50 (OXA-1 β-lactamase): < 100 nM | IC50 [1]: 100 to 1000 nM | IC50 (p99 AmpC β-lactamase): < 100 nM

Cc1ccc(C(=O)N[C@H]2Cc3cccc(C(=O)O)c3OB2O)cc1N [Example 23, (R)-3-(3-amino-4-methylbenzamido)-2-hydroxy-3,4-dihydro-2H-benzo[e][1,2]oxaborinine-8-carboxylic acid]
IC50 (SHV-5 β-lactamase): < 100 nM | IC50 (KPC-2 β-lactamase): < 100 nM | IC50 (OXA-1 β-lactamase): < 100 nM | IC50 [1]: 100 to 1000 nM | IC50 (p99 AmpC β-lactamase): < 100 nM

O=C(N[C@H]1Cc2cccc(C(=O)O)c2OB1O)c1ccc(-c2ccccn2)cc1 [Example 24, (R)-2-hydroxy-3-(4-(pyridin-2-yl)benzamido)-3,4-dihydro-2H-benzo[e][1,2]oxaborinine-8-carboxylic acid]
IC50 (SHV-5 β-lactamase): < 100 nM | IC50 (KPC-2 β-lactamase): < 100 nM | IC50 (OXA-1 β-lactamase): < 100 nM | IC50 [1]: 100 to 1000 nM | IC50 (p99 AmpC β-lactamase): < 100 nM

N=C(N)NCc1ccc(C(=O)N[C@H]2Cc3cccc(C(=O)O)c3OB2O)cc1CNC(=N)N [Example 25, (R)-3-(3,4-bis(guanidinomethyl)benzamido)-2-hydroxy-3,4-dihydro-2H-benzo[e][1,2]oxaborinine-8-carboxylic acid]
IC50 (SHV-5 β-lactamase): 100 to 1000 nM | IC50 (KPC-2 β-lactamase): < 100 nM | IC50 (OXA-1 β-lactamase): 100 to 1000 nM | IC50 [1]: < 100 nM | IC50 (p99 AmpC β-lactamase): < 100 nM

O=C(N[C@H]1Cc2cccc(C(=O)O)c2OB1O)c1ccc2[nH]ccc2c1 [Example 26, (R)-2-hydroxy-3-(1H-indole-5-carboxamido)-3,4-dihydro-2H-benzo[e][1,2]oxaborinine-8-carboxylic acid]
IC50 (SHV-5 β-lactamase): < 100 nM | IC50 (KPC-2 β-lactamase): < 100 nM | IC50 (OXA-1 β-lactamase): < 100 nM | IC50 [1]: 100 to 1000 nM | IC50 (p99 AmpC β-lactamase): < 100 nM

O=C(N[C@H]1Cc2cccc(C(=O)O)c2OB1O)c1ccc(-c2ccncc2)cc1 [Example 27, (R)-2-hydroxy-3-(4-(pyridin-4-yl)benzamido)-3,4-dihydro-2H-benzo[e][1,2]oxaborinine-8-carboxylic acid]
IC50 (SHV-5 β-lactamase): < 100 nM | IC50 (KPC-2 β-lactamase): < 100 nM | IC50 (OXA-1 β-lactamase): < 100 nM | IC50 [1]: 1000 to 10000 nM | IC50 (p99 AmpC β-lactamase): < 100 nM

O=C(N[C@H]1Cc2cccc(C(=O)O)c2OB1O)c1ccc2ncccc2c1 [Example 28, (R)-2-hydroxy-3-(quinoline-6-carboxamido)-3,4-dihydro-2H-benzo[e][1,2]oxaborinine-8-carboxylic acid]
IC50 (SHV-5 β-lactamase): < 100 nM | IC50 (KPC-2 β-lactamase): < 100 nM | IC50 (OXA-1 β-lactamase): < 100 nM | IC50 [1]: 1000 to 10000 nM | IC50 (p99 AmpC β-lactamase): < 100 nM

O=C(N[C@H]1Cc2cccc(C(=O)O)c2OB1O)c1ccc2nccnc2c1 [Example 29, (R)-2-hydroxy-3-(quinoxaline-6-carboxamido)-3,4-dihydro-2H-benzo[e][1,2]oxaborinine-8-carboxylic acid]
IC50 (SHV-5 β-lactamase): < 100 nM | IC50 (KPC-2 β-lactamase): < 100 nM | IC50 (OXA-1 β-lactamase): < 100 nM | IC50 [1]: 1000 to 10000 nM | IC50 (p99 AmpC β-lactamase): < 100 nM

O=C(N[C@H]1Cc2cccc(C(=O)O)c2OB1O)c1ccc2cc[nH]c2c1 [Example 30, (R)-2-hydroxy-3-(1H-indole-6-carboxamido)-3,4-dihydro-2H-benzo[e][1,2]oxaborinine-8-carboxylic acid]
IC50 (SHV-5 β-lactamase): 100 to 1000 nM | IC50 (KPC-2 β-lactamase): < 100 nM | IC50 (OXA-1 β-lactamase): < 100 nM | IC50 [1]: 100 to 1000 nM | IC50 (p99 AmpC β-lactamase): < 100 nM

O=C(O)c1cccc2c1OB(O)[C@@H](NC(=O)c1cccc3cc[nH]c13)C2 [Example 31, (R)-2-hydroxy-3-(1H-indole-7-carboxamido)-3,4-dihydro-2H-benzo[e][1,2]oxaborinine-8-carboxylic acid]
IC50 (SHV-5 β-lactamase): 100 to 1000 nM | IC50 (KPC-2 β-lactamase): < 100 nM | IC50 (OXA-1 β-lactamase): < 100 nM | IC50 [1]: 1000 to 10000 nM | IC50 (p99 AmpC β-lactamase): < 100 nM

O=C(O)c1cccc2c1OB(O)[C@@H](NC(=O)c1cccc3[nH]ccc13)C2 [Example 32, (R)-2-Hydroxy-3-[(1H-indole-4-carbonyl)-amino]-3,4-dihydro-2H-benzo[e][1,2]oxaborinine-8-carboxylic acid]
IC50 (SHV-5 β-lactamase): < 100 nM | IC50 (KPC-2 β-lactamase): < 100 nM | IC50 (OXA-1 β-lactamase): < 100 nM | IC50 [1]: 100 to 1000 nM | IC50 (p99 AmpC β-lactamase): < 100 nM

O=C1Cc2cc(C(=O)N[C@H]3Cc4cccc(C(=O)O)c4OB3O)ccc2N1 [Example 33, (R)-2-Hydroxy-3-[(2-oxo-2,3-dihydro-1H-indole-5-carbonyl)-amino]-3,4-dihydro-2H-benzo[e][1,2]oxaborinine-8-carboxylic acid]
IC50 (SHV-5 β-lactamase): < 100 nM | IC50 (KPC-2 β-lactamase): < 100 nM | IC50 (OXA-1 β-lactamase): < 100 nM | IC50 [1]: 100 to 1000 nM | IC50 (p99 AmpC β-lactamase): < 100 nM

O=C(N[C@H]1Cc2cccc(C(=O)O)c2OB1O)c1ccc2nc[nH]c2c1 [Example 34, (R)-3-[(3H-Benzoimidazole-5-carbonyl)-amino]-2-hydroxy-3,4-dihydro-2H-benzo[e][1,2]oxaborinine-8-carboxylic acid]
IC50 (SHV-5 β-lactamase): < 100 nM | IC50 (KPC-2 β-lactamase): < 100 nM | IC50 (OXA-1 β-lactamase): < 100 nM | IC50 [1]: 100 to 1000 nM | IC50 (p99 AmpC β-lactamase): < 100 nM

O=C(N[C@H]1Cc2cccc(C(=O)O)c2OB1O)c1cnc2[nH]ccc2c1 [Example 35, (R)-2-Hydroxy-3-[(1H-pyrrolo[2,3-b]pyridine-5-carbonyl)-amino]-3,4-dihydro-2H-benzo[e][1,2]oxaborinine-8-carboxylic acid]
IC50 (SHV-5 β-lactamase): < 100 nM | IC50 (KPC-2 β-lactamase): < 100 nM | IC50 (OXA-1 β-lactamase): < 100 nM | IC50 [1]: 100 to 1000 nM | IC50 (p99 AmpC β-lactamase): < 100 nM

N=C(N)N1Cc2ccc(CC(=O)N[C@H]3Cc4cccc(C(=O)O)c4OB3O)cc2C1 [Example 37, (3R)-3-[[2-(2-carbamimidoylisoindolin-5-yl)acetyl]amino]-2-hydroxy-3,4-dihydro-1,2-benzoxaborinine-8-carboxylic acid]
IC50 (SHV-5 β-lactamase): < 100 nM | IC50 (KPC-2 β-lactamase): < 100 nM | IC50 (OXA-1 β-lactamase): < 100 nM | IC50 [1]: 100 to 1000 nM | IC50 (p99 AmpC β-lactamase): < 100 nM

O=C(Cc1ccc(O)c(O)c1)N[C@H]1Cc2cccc(C(=O)O)c2OB1O [Example 38, (R)-3-(2-(3,4-dihydroxyphenyl)acetamido)-2-hydroxy-3,4-dihydro-2H-benzo[e][1,2]oxaborinine-8-carboxylic acid]
IC50 (SHV-5 β-lactamase): < 100 nM | IC50 (KPC-2 β-lactamase): < 100 nM | IC50 (OXA-1 β-lactamase): < 100 nM | IC50 [1]: 100 to 1000 nM | IC50 (p99 AmpC β-lactamase): < 100 nM
